Data: US20250161238A1, “NMDAR Antagonists Prevent Ageing and Aging-Associated Conditions and Diseases Through Increasing 20S Proteasome Activity” (priority 2022, published 2025)

Assays:
Ub-YFP = Ub-YFP degredation in Hep3B cells; assay type: cell-based, human
Method: This finding was supported by the following experiments; First, a model was developed to find inhibitor or inhibitors for the ubiquitin dependent degredation in the Hep3B cell line. For this purpose Hep3B cell expressing Ub-YFP genome were prepared. Ub-YFP is a system which was used to detect the ubiquitin dependent proteasome activity (26S). It is also known that Ub-YFP is not affected by the ubiquitin-independent protesome system. In further experiments, we tested molecules which are involved in different parts of the ubiquitination processes including PYR41 (Ubiquitin-activating enzyme (E1) inhibitor), NCC697923 (UBE2N E2 ubiquitin-conjugating enzyme inhibitor), SMER3 (ubiquitin ligase E3 inhibitor), SZL-P1-411 (Skp2 E3 ligase inhibitor), SKPIN C1 (Skp2 E3 ligase inhibitor), P005091 (USP7 inhibitor), Vialin A (USP4 and USP5 inhibitor), Spautin A (USP10 and USP13 inhibitor), ML 323 (USP1-UAF1 inhibitor), IU1 (USP14 inhibitor), and Mg132 (protesome inhibitor) for the inhibition of Ub-YFP degredation. […] MG132 was used as the inhibitor of the protesome activity (FIG. 12A). In the next experiment YFP protein amount was investigated in the presence of ketamin, Pyr41, and ketamin and Pyr41 together by western blot in Hep3B cell.
The Ub-R-YFP open-reading frame was obtained from Ub-R-YFP was a gift from Nico Dantuma (Addgene plasmid #11948). Ub-R-YFP sequence was obtained from the original vector by cutting the plasmid with NheI and NotI enzymes (Thermo Scientific), blunt ended and was cloned into pBSK-clo2D which is cut by EcoRV restriction enzyme (SibEnzyme, E059). Ub-R-YFP was obtained from the pBSK-clo2D vector by cutting with BamHI. pLV-EF1a-IRES-Puro (85132-Addgene) vector was cut by BamHI restriction enzyme and dephospharylated and ligated with Ub-R-YFP. After the orientation construct was determined, pLV-EF1a-IRES-Puro-Ub-R-YFP was reproduced in large volumes using DH5a E. Coli.
Hek293T cells were transfected with the pLV-EF1a-IRES-Puro-Ub-R-YFP and helper vectors psPAX2 and pMD2.G using Calcium Phosphate Mammalian Transfection Kit (631312-Takara bio). After 48 h supernatants containing Ub-R-YFP lentivirus were collected and target cells were infected under the presence of […] polybrene. After 24 hours, the media of the cells were replaced with media containing […] puromycin for 6 days. Then living cells were combined in a pool. Infected clones were maintained in the presence of 250 ng/ml puromycin.

lipid accumulation = assay: Nile red staining of lipid in mouse tissues; assay type: in vivo; settings: mice at 22 months
Text: In the next study, the effects of NMDAR blocker on lipid accumulation in liver, brain, muscle, lung, skin, pancreas, and kidney of mice with the presence of Memantine and control mice groups at 22 months were stained with Nile red and investigated.
Whole frozen tissues were sectioned with a microtome and fixed in 4% paraformaldehyde, Tissues were washed in PBS and the individual staining methods used in accordance with the manufacturer's recommendations. Total pixels from fluorescence in the images were quantified using Adobe Photoshop software CS2 (Adobe Systems), and normalized to a nuclear stain.

C. elegans = C. elegans lipid accumulation by Nile Red staining; assay type: in vivo
Text: In the next study, the effects of NMDAR blocker on lipid accumulation and central body fat and thus the fat metabolism in C. elagans was investigated. As mentioned above Nile red is a lipophilic stain which stain intracellular lipid droplets in cell. Therefore, in the presence of memantine and control C. elegans groups on the 19th day, the amount of fat in the living organisms was investigated by Nile Red staining.

[1] = cited from earlier work
mice [2] = assay: Open Field Maze (OFM) tests in aged mice; assay type: in vivo
Text: Another test showing locomotor activity in mice is Open Field Maze (OFM). The OFM is one of the most widely used platforms which allow the researcher to measure behaviors ranging from overall locomotor activity to anxiety-related emotional behaviors. The first and most important specific parameter to measure in the OFM is total ambulatory distance.
The experimental protocols were approved by the Ethics Committee of Ankara University, Faculty of Medicine, Medical Sciences Experimental Research and Application Center (Date: Dec. 11, 2019 and Decision number: 2019-22-189). Adult (12-mounts-old) C57BL/6 mice (5 for each group) were used. The mice were housed at the Experimental Animal Research Laboratory of Ankara University Faculty of Medicine. Food and water were given without restriction. The ambient temperature was kept at 21±2° C., and locomotor activity tests were performed at this temperature. The animals were housed in a room with a 12-hour light/dark cycle. The procedures in the study were performed in accordance with the Ankara University Animal Care Committee according to international guidelines. Memantine (Sigma-Aldrich) was administered orally at 3 mg/Kg/per day with drinking water of one-year-old mice. Tests related to locomotor activities of the mice were recorded and available.
Open Field Test described firstly Hall for “emotionality” (Hall, 1934). Open Field test is used for anxiety-like behavior (ALB) and locomotor activity. We conducted the test in a hypethral box, which was made of 62×68 cm blueboard. The base of the box was divided into 20 equal rectangles. Animals had placed in the central region of Open Field Test. The first 5 min of the record was used for the analysis of behavioral parameters such as total distance traveled (horizontal locomotor activity), total rearing number (vertical locomotor activity), central zone time (ALB), Central zone Latency (the time of first return to the central region: ALB), central zone entrance (ALB), unsupported rearing (vertical locomotor activity without touch test wall and exploratory behavior, sensitive for ALB), central escape latency (first escape time from central zone: ALB) (Çalιşkan et al, 2019, Çalιşkan et al, 2020).

mice [3] = assay: Weight test (forelimb grip) in aged mice; assay type: in vivo; settings: mice at 22 months
Text: Another grip test that measures muscle strength more finely is forelimb grip strength test. Many biomarkers related to aging have been identified in human. Importantly, the grip tests performed on humans has been defined as a highly predicitive indicator that can show disabilities, diseases and deaths that may occur due to aging (Iconaru et al., 2018; Sousa-Santos and Amaral, 2017) In this test a mouse is held by the middle base of the tail and lower it to allow it to grasp the weight which is a ball of tangled fine gauge stainless steel wire. This test is carried out by increasing the weight, investigating the weight that the mouse can carry or keeping the weight constant and how long the mouse can carry the weight.
The experimental protocols were approved by the Ethics Committee of Ankara University, Faculty of Medicine, Medical Sciences Experimental Research and Application Center (Date: Dec. 11, 2019 and Decision number: 2019-22-189). Adult (12-mounts-old) C57BL/6 mice (5 for each group) were used. The mice were housed at the Experimental Animal Research Laboratory of Ankara University Faculty of Medicine. […] Tests related to locomotor activities of the mice were recorded and available.
Weight test use to measure muscle strength (Deacon, 2013). […] The experiment was recorded by camera for a maximum of 5 minutes. Total griping time was evaluated.

[4] = human subjects; cited from earlier work

## CNC1(c2ccccc2Cl)CCCCC1=O (stereo not shown) [ketamin, 2-(2-chlorophenyl)-2-(methylamino)-cyclohexanone]
Ub-YFP; Hep3B expressing Ub-YFP
  Ub-YFP degredation: no effect
Ub-YFP; Hep3B, western blot
  YFP protein amount: did not decrease

## CC12CC3CC(C)(C1)CC(N)(C3)C2 [memantine, 3,5-dimethyladamantan-1-amine]
Lipid accumulation
  amount of lipid in liver, brain, muscle, lung, and skin: less than that of the control group
  amount of lipid in pancreas and kidney: No clear difference
C. elegans; 19th day
  lipid accumulation in control group compared to treated: more than 2 fold
C. elegans; 20th day
  lipid accumulation in control group compared to treated: more than 2 fold
[1]
  free rat brain concentrations, lower in plasma: 20-30%
Mice [2]; 5-minute movements
  Central zone time: 4 times
Mice [2]; P 0.07
  Central latency time: differed at least twice
Mice [2]; P 0.08
  Central zone entrance: differed at least twice
Mice [2]; P 0.4
  Central escape latency: differed at least twice
Mice [2]; five minute recordings
  total ambulatory distance: nearly two times more
Mice [2]; mouse, in vivo
  Peripheral zone time: mice not receiving memantine remained in the peripheral regions more
  total rearing activity: twice as much rearing activity
Mice [3]
  forelimb grip: time holding a fixed weight: four times longer
[4]
  CSF concentrations, lower: 30-40%
